Measured values: PMC8744458 (Beilstein Journal of Organic Chemistry, 2022)
Several values for one entry are separate records, joined by “and”; a condition that tells them apart may be missing. Equal entries are not always repeated. Entries after “also recorded” stand apart in the source; their conditions may differ. Positions of bridges follow the written chain, without caps; N, C: chain ends. Non-standard residues stand in square brackets, D forms with d. Residues, ends and D or L forms follow the SMILES beside them. No end group written: not given here. *: point of attachment. FITC = O=C1OC2(c3ccc(O)cc3Oc3cc(O)ccc32)c2ccc(NC(=S)*)cc21; S5 = C=CCCC[C@](C)(N)C(=O)O

T1: β-catenin (Homo sapiens, UniProt P35222)
T1 construct: expression and purification of full-length β-catenin; His tag with TEV site (inferred from the pET28a-TEV vector name and Ni-NTA purification); host or cells: E. coli BL21(DE3)
T1 sequence (P35222 1-781): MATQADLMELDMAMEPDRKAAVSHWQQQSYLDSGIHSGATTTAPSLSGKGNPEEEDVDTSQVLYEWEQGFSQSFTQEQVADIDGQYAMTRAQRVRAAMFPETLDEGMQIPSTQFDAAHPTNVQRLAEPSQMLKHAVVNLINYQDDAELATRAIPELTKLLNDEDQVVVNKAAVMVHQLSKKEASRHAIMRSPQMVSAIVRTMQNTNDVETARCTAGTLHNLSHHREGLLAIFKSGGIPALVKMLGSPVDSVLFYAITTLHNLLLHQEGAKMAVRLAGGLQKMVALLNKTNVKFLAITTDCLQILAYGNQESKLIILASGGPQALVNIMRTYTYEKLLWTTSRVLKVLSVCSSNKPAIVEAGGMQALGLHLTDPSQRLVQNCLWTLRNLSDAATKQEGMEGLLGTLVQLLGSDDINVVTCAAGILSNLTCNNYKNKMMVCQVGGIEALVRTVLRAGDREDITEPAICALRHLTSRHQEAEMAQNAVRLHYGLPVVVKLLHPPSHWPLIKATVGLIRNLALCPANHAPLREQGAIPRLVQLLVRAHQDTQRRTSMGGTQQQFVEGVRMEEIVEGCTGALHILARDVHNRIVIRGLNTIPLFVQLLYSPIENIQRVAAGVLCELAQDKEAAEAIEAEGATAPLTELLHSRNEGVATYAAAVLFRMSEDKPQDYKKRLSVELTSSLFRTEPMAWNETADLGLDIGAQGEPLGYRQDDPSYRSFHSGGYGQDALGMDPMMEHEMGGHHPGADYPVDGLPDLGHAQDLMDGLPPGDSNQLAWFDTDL

T2: β-catenin (Homo sapiens, UniProt P35222)
T2 chain: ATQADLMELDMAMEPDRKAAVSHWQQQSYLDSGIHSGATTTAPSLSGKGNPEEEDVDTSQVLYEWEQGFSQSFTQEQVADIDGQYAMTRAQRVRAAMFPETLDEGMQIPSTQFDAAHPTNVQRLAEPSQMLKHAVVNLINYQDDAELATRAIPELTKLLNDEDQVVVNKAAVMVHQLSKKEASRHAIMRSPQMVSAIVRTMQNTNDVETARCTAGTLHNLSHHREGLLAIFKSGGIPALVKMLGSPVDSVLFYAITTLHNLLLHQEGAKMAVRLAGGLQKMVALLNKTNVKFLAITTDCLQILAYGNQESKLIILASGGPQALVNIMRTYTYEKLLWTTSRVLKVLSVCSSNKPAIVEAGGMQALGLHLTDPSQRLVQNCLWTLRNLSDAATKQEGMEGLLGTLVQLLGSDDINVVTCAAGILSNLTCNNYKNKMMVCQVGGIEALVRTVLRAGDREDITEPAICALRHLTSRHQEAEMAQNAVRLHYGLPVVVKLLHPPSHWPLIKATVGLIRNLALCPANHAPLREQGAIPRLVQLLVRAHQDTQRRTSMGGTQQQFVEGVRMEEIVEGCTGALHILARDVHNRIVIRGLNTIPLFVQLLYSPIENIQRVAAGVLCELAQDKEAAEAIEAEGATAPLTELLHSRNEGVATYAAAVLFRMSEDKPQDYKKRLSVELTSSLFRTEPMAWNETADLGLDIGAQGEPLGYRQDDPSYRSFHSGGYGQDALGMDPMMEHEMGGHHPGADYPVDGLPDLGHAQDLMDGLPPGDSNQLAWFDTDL

B1: fStAx-3 (FITC-labelled RCM-stapled axin CBD peptide) 467-481 (peptide)
chain: {FITC}-PESILDEHVQRVLRT
modifications: staple (positions not given here); not fully specified (residues 5, 9, bridges); also: all-hydrocarbon staple at 471/475 (positions 5, 9), stapling residues not named

How the values were obtained:
[1] = not given; remark: listed apart in the source
[2] = not given; remark: listed apart in the source
proteinase K = proteinase K (Parengyodontium album, UniProt P06873); assay: Proteinase K stability assay; format: in vitro ADME; conditions: 0.5 mM peptide, 2.5 µg mL−1 proteinase K, Na2HPO4 buffer 100 mM pH 7.4 (with DMSO from stock), 25 °C, 120 min; samples at 0, 10, 20, 30, 60, 120 min; LC-MS at 280 nm
Protocol: Proteinase K stability assays
The assay was performed using a modified protocol.[11] A 10 mM peptide stock solution was prepared in a mixture of Na2HPO4 buffer (100 mM, pH 7.4) and DMSO (9:1). The peptide stock solution (25 µL) was diluted with more Na 2HPO4 buffer (450 µL) and thoroughly mixed.
Proteolytic digestion was started by addition of a solution of Proteinase K ( 50 µg mL−1, activity 36.9 mAnsonU mg−1) in Na2HPO4 buffer (25 µL) and incubated for 120 min at 25 °C (resulting assay concentrations 0.5 mM peptide and 2.5 µg mL−1 proteinase K). For LC-MS analysis, a 50 µL sample was diluted with 50 µL of methanol containing 0.1% TFA (v/v) and spun down at […]
Reaction monitoring via LC-MS
Figure S8: Reaction monitoring via LC-MS at λ = 280 nm. A) Linear Peptide P6, samples were taken […]
at t = 0, 10, 20, 30, 60 and 120 min. […]
fragment Ac-ENPEWILDKHVQ-OH eluting at exactly the same retention time than peptide P6 (see mass spectra below at reaction times 0 and 120 min). For fragment assignments, see mass spectra below. B) SMC stapled peptide P5, samples were taken at t = 0, 10, 20, 30, 60 and 120 min. Compared to linear […]

β-catenin [3] = molecular target: T1, β-catenin; assay: Competitive fluorescence polarisation assay; format: binding; conditions: unlabelled peptide titrated against tracer peptide fStAx-3 (10 nM final), β-catenin 3 µM final; FP buffer 1× PBS with 0.05% Tween20, pH 7.4; 4 °C, 1 h; biological duplicate and technical triplicate
Protocol: Figure S6: Direct titration curve of fluorescence polarisation assay of FITC-labelled AxWt (fAxWt) and FITC-labelled RCM-stapled peptide StAx-3 (fStAx-3). Dissociation constants were determined to be Kd […]
competitive fluorescence polarisation assay (see below).
Competitive fluorescence polarisation assay
A stock solution of the FITC-labelled peptide in DMSO (20 µM) was diluted to 40 nM in FP buffer (1× PBS with 0.05% Tween20, pH 7.4). A β-Catenin stock solution with a concentration of 6 µM was prepared in FP buffer. Stock solutions of non-labelled peptides (1 mM) in DMSO were serially diluted (2.5-fold) in FP buffer. […]
Fluorescence polarisation was measured using a Tecan Spark 10M with λex = 485/20 nm and […]. Each sample was measured as biological duplicate and technical triplicate. […]
The equation used for Kd determination of unlabeled peptides is shown below with r as anisotropy, r0 as anisotropy of the free peptide, rb as anisotropy of the β-Catenin:FITC-labelled tracer peptide, Kd2 as dissociation constant between the non-labelled ligand and the protein, [L]t as total non-labelled ligand concentration and [L]st as total FITC-labelled peptide concentration. Kd1 is the apparent Kd that was determined in direct fluorescence polari sation assays for the labelled-tracer peptide. […]
fluorescence polarisation assay). […]

[4] = CD spectroscopy, calculated content of α-helix; format: physicochemical; conditions: c = 100 µM in water, 20 °C, from MRE at 222 nm
Protocol: Figure 1 Analysis of the secondary structure by circular dichroism: CD spectra of both isomers of stapled peptide P5 (P5.1 and P5.2) and linear references (aAxWt, P6) (c = 100 µM) at 20 °C in water.
Table S1: Calculated contents of α-helix.
Peptide θ222 [mdeg] [θ]222 [deg cm2 dmol-1] a) MRE [deg cm2 dmol-1] b) α-Helix content [%]
a) [θ] = θ / (c * 10 * l) with c = 10-4 mol/L, l = 0.1 cm; b) MRE = [θ] / n; c) in brackets literature values for
FITC-labelled analogues, ref: Grossmann, T. N.; Yeh, J. T.-H.; Bowman, B. R.; Chu, Q.; Moellering, R.
For TFE titration experiments, peptide solutions in a mixture of TFE/H2O 4:1 were additionally
Reference peptides (linear and RCM stapled peptides)
Figure S2: CD spectra of reference peptides P6, aAxWt and aStAx-3, c = 100 µM in H2O. […]

β-catenin [5] = molecular target: T2, β-catenin; assay: direct fluorescence polarisation
β-catenin [6] = molecular target: T2, β-catenin; assay: competitive fluorescence polarisation

proteinase K, sequence (P06873 106-384, species assumed): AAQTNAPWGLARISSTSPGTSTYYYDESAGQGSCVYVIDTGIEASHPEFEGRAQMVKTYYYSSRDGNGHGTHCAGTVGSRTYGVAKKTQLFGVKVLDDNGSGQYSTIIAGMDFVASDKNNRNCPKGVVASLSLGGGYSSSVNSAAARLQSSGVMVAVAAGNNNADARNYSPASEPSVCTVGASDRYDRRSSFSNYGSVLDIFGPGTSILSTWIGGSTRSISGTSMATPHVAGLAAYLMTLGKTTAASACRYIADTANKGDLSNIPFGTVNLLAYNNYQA

Kd (β-catenin [5])	Kd (β-catenin [6])	Molecule	MRE (deg cm2 dmol-1)	θ222 [1]	[θ]222 (deg cm2 dmol-1) [2]	Stability against proteinase K digestion (cleavage sites/fragments) (proteinase K)	Kd (β-catenin [3])	α-Helix content calculated from CD spectra [4]
		CC[C@H](C)[C@@H]1NC(=O)[C@@H](NC(=O)[C@H](CCC(=O)O)NC(=O)[C@@H]2CCCN2C(=O)[C@H](CC(N)=O)NC(=O)[C@H](CCC(=O)O)NC(C)=O)Cc2c[nH]c3c(cccc23)-c2ccc(cc2)CCC(=O)NCCCC[C@@H](C(=O)N[C@@H](Cc2c[nH]cn2)C(=O)N[C@H](C(=O)N[C@@H](CCC(N)=O)C(=O)N[C@@H](CCCNC(=N)N)C(=O)N[C@H](C(=O)N[C@@H](CCSC)C(N)=O)C(C)C)C(C)C)NC(=O)[C@H](CC(=O)O)NC(=O)[C@H](CC(C)C)NC1=O [P5]	-4690 and -6680	-7.04 mdeg and -10 mdeg	-70400 and -100000	two of three cleaving sites are blocked; also recorded: allows access to only one of the three cleavage sites; also recorded: higher stability		
		CC[C@H](C)[C@@H]1NC(=O)[C@@](C)(NC(=O)[C@H](CCC(=O)O)NC(=O)[C@@H]2CCCN2C(=O)[C@H](CC(N)=O)NC(=O)[C@H](CCC(=O)O)NC(C)=O)CCCC=CCCC[C@@](C)(C(=O)N[C@@H](Cc2c[nH]cn2)C(=O)N[C@H](C(=O)N[C@@H](CCC(N)=O)C(=O)N[C@@H](CCCNC(=N)N)C(=O)N[C@H](C(=O)N[C@@H](CCSC)C(N)=O)C(C)C)C(C)C)NC(=O)[C@H](CC(=O)O)NC(=O)[C@H](CC(C)C)NC1=O [aStAx-3, reference compound] (Ac-ENPE[S5]ILD[S5]HVQRVM-NH2; staple 5-9)	-10800	-16.2 mdeg	-162000		49 ± 26 nM	
		Ac-ENPEWILDKHVQRVM-NH2 [P6]	-3960	-5.94 mdeg	-59400	degraded in three fragments; also recorded: cleaved within a period of 120 min to give three fragments	1240 ± 162 nM	13%
63 nM		B1						
	1450 nM	PESILDEHVQRVLRT [aAxWt (axin CBD peptide) 467-481]						
